Test [1] relates to Bcl-2 1863 cell line. Put plainly: DAPI fluorescence cell-based cytotoxicity (apoptosis) assay, Bcl-2 1863. Details: species or system mouse. The note with it: Bcl-2 1863, 24 hours, 125 nM to 1 μM. As to the method:
(§1) The mouse leukemia-derived cell lines Mcl-1-1780 and Bcl-2-1863 (Ryan et al., Proc. Nat. Acad. Sci USA, 107, 12895-12900, which is hereby incorporated by reference in its entirety) were obtained under license from Dana Farber Cancer Institute. Cells were grown in RPMI 1640 medium (GIBCO-BRL) with 2 mM L-glutamine, 4.5 g/L glucose, 1.0 mM sodium pyruvate and 5% fetal bovine serum. Cells were expanded in tissue culture in appropriate media and then sub-cultured into 96-well plates at a seeding density of 20,000 cells per well. After incubation for 24 hours, cells were treated with compounds that are titrated into appropriate medium with FCS. Four concentrations of compound were used: 1 μM, 500 nM, 250 nM, and 125 nM. Assay was run in triplicate for each compound at each concentration and averages were calculated. Cells were treated with compound for 24 hours, then fixed with methanol and stained with the DNA-binding agent DAPI (4′,6-diamidino-2-phenylindole). The cells were then examined by fluorescent microscopy; cells in which caspase 3 and caspase 7 have not been activated will emit at […] when excited by […] light. Caspase-mediated cleavage of nucleosomal proteins causes condensed, pyenotic nuclear morphology that may be measured by cell counting.

The test system of test [2] is Mcl-1 1780 cell line. Put plainly: DAPI fluorescence cell-based cytotoxicity (apoptosis) assay, Mcl-1 1780. Details: species or system mouse. The note with it: Mcl-1 1780, 24 hours, 125 nM to 1 μM. As to the method:
as §1

Test [3] relates to DHL-6. Put plainly: In situ mitochondrial cytochrome c release assay, DHL-6. In kind it is cell-based. As to conditions: DHL-6 (Bax/Bak-functional), semi-permeabilized cells, 1 hour. The text has this: (§2) The on-target activity of compound 12 was validated. Changes in mitochondrial integrity were observed utilizing anti-cytochrome c conjugated to Alexa488 (BD). When the mitochondria are intact, they retain cytochrome c and have bright, punctate staining with the antibody whereas cells with compromised mitochondrial integrity will lose cytochrome c and will not stain with the antibody. This can be observed by microscopy as well as measured by a shift in fluorescence on the FL1 channel of a flow cytometer.
(§3) The selective response of mitochondria in semi-permeabilized cell lines to the compounds was observed. The assay was adapted from (Campos et al. (2006) Cytometry Part A. 69(A):515-523, which is hereby incorporated by reference in its entirety).
(§4) Suspension cell lines SUDHL6, SUDHL8, and SUDHL10 were grown in RPMI, washed once in 1×PBS and re-suspended at a concentration of 2e6/ml in assay buffer with 0.0025% Digitonin. Assay buffer; 300 mM Trehalose, 10 mM HEPES-KOH pH 7.7, 80 mM KCl, 1 mM EGTA, 1 mM EDTA, 0.1% BSA. 5 mM Succinate. […] Cytochrome c loss was measured by microscopy. At least 100 cells per treatment were counted and scored as positive for cytochrome c loss if they lacked staining. In both methods DMSO was calculated as 0% cytochrome c loss and the Bim response for DHL6 was used to determine 100% cytochrome c loss.

The test system of test [4] is DHL-10. The test can be described thus: In situ mitochondrial cytochrome c release assay, DHL-10. In kind it is cell-based. The note with it: DHL-10 (Bax/Bak-deficient), semi-permeabilized cells, 1 hour.
Excerpt: as §2, §3, §4

Test [5] has as its system DHL-8. The test can be described thus: In situ mitochondrial cytochrome c release assay, DHL-8. The note with it: DHL-8, semi-permeabilized cells, 1 hour. In kind it is cell-based.
Excerpt: as §2, §3, §4

As for `CCN1CCN(C(c2ccc(C(F)(F)F)cc2)c2ccc3cccnc3c2O)CC1` (centres unmarked) [compound 12, 7-((4-ethylpiperazin-1-yl)(4-(trifluoromethyl)phenyl)methyl)quinolin-8-ol], the “induction of apoptosis (cells exhibiting apoptosis)” value in test [1] was “significantly lesser degree”; in test [2] it was “induce apoptosis”. Moreover, the cytochrome c release result in test [3] was “activity”; in test [4], “lack of activity”; in test [5] it was “reduced activity”.

The values above are taken from patent publication US10765673B2, “Methods and compositions useful for treating diseases involving Bcl-2 family proteins with quinoline derivatives” (Eutropics Pharmaceuticals, Inc., priority 2012, dated 2020).
